Earlier results on two compounds are cited in patent US20060182729A1, “Combat/training antioxidant micronutrient formulation and method of administration” (priority 2005, published 2006).

The test system of data set [1] is mutagens in the small intestine. The note with it: supplementation.
For data set [2] the following is noted: oral supplementation, human subjects.

In the case of `O=C1O[C@H]([C@@H](O)CO)C(O)=C1O` [vitamin C, ascorbic acid], the “formation of mutagens in the small intestine” value in data set [1] is “reduces”. For the compound `N[C@@H](CCC(=O)N[C@@H](CS)C(=O)NCC(=O)O)C(=O)O` [glutathione], the “plasma levels of glutathione” value in data set [2] is recorded as “failed to significantly increase”.
